Patent publication US20080149878A1, “Fluorosurfactants” (priority 2005, published 2008)

Experiment: Determination of the surface tension (Krüss tensiometer K12, ring)
Type: physicochemical
Settings: 20° C.
Description: [table] Further details on the method can be obtained from the publication by the European Commission Classification, Packaging and Labelling of Dangerous Substances in the European Union, Part II—Test Methods, Annex V—Methods for the Determination of Physico-Chemical Properties, Toxicity and Ecotoxicity, Part A, Surface Tension (A.5), January 1997, pages 51-57, and from the OECD Guideline for the Testing of Chemicals, Section 1, Physical-Chemical Properties, Method 115, pages 1-7, adopted: 27, July 95, the contents of which in this respect expressly belong to the disclosure content of the present application.

Structure (SMILES) | Surface tension (1.0020 g/l (4.101E−03 mol/l) in deionised water) [mN/m] | Surface tension (2.0015 g/l (8.192E−03 mol/l) in deionised water) [mN/m] | Surface tension (3.0010 g/l (1.228E−02 mol/l) in deionised water) [mN/m] | Surface tension (0.5015 g/l (1.527E−03 mol/l) in deionised water) [mN/m] | Surface tension (1.0000 g/l (3.046E−03 mol/l) in deionised water) [mN/m] | Surface tension (2.0005 g/l (6.093E−03 mol/l) in deionised water) [mN/m]
CCCCCCCCCCS(=O)(=O)[O-].[Na+] [Decane-sulfonic acid Na salt, sodium decanesulfonate] | 66.13 | 57.70 | 52.61 |  |  | 
O=S(=O)(O)CCCCCCCCCCOC(F)(F)F [Example 5, Sodium 10-trifluoromethoxydecane-1-sulfonate] |  |  |  | 59.95 | 52.55 | 42.61
